Reference: US20200308619A1, “GENE CONSTRUCT AND BIOSENSOR FOR THE RAPID DETECTION OF AHL MOLECULES AND THE PATHOGENIC BACTERIA THAT PRODUCE SAME” (UNIVERSIDAD DE VALPARAISO, priority 2017, published 2020)

Test system: E. coli pUCPAO1RHL biosensor strain
Test: Biosensor fluorescence emission (GFP) in response to AHL extract and copper
Format: cell-based, Escherichia coli
Details: copper by itself, no AHL
Experimental: The biosensing strain named E. coli pUCPAO1RHL that contains the gene construct of the invention, was used to evaluate its response to the presence of AHLs and the presence of copper. For the evaluation, AHLs were obtained from the bacterium Pseudomonas aeruginosa from a 12-hour bacterial culture in late exponential phase. For this, the supernatant was separated from the bacterial cells by centrifugation at 8,000 rpm for 15 minutes. An organic extraction with dichloromethane (DCM) from the supernatant was performed in a ratio of 70:30 (Supernatant: DCM). For this, 200 ml of supernatant and 85 ml of DCM were incorporated into a […] volume decantation flask. It was stirred vigorously, then left to settle at room temperature for 1 hour. […]
The biosensor strain (180 μL) was grown in the presence of 10 μL of AHL extract (obtained from the stationary phase of growth of P. aeruginosa) and in the presence of 500 μM of copper (such as CuSO4) in Luria Bertani liquid medium at 37° C. stirred in 96-well plates on a temperature controlled orbital shaker spectrofluorometer equipment (Tecan USA). During growth, turbidity was recorded at an absorbance of 600 nm and fluorescence at […] every 15 minutes, equivalent to one cycle of fluorescence emission measurement. […]

O=S(=O)([O-])[O-].[Cu+2] [copper, CuSO4]
inducing effect on fluorescence: did not show an obvious inducing effect of fluorescence
